Assay results published in patent publication US12152012B2, “BRAG2 inhibitors and applications thereof” (CENTRE NATIONAL DE LA RECHERCHE SCIENTIFIQUE, priority 2018, dated 2024).

Legend:
Assay in all cases: Nucleotide exchange fluorescence kinetics in solution, Sec7 domain with truncated Arf1
Assay type in all cases: biochemical
Settings in all cases: 50 μM, no membranes
[1] = target: T1, Sec7 domain of ARNO (Homo sapiens, UniProt Q99418)
T1 construct: ARNO^Sec7 (50-256), BIG1^Sec7 (691-889); made in house
T1 sequence (Q99418 50-256): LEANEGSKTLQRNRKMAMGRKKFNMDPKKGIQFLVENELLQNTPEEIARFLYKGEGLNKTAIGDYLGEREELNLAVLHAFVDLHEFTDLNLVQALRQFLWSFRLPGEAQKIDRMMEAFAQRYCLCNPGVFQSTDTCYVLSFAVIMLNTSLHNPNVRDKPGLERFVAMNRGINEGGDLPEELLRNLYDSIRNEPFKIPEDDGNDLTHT
Description: (§1) The effect of Bragsin1 on the GEF efficiency of representative human ArfGEFs was evaluated by fluorescence kinetics using highly purified recombinant Arf GTPases and ArfGEFs. In a first series of assays, the Sec7 domains of BIG1, a Golgi ArfGEF, and of ARNO, EFA6a and BRAG2, which function at the plasma membrane, were used. When tested in solution, Bragsin1 had no effect on the activation of Arf1 by any of these Sec7 domains (FIGS. 2a and 14). Separately, we reconstituted the activation of myristoylated Arf1 by the same ArfGEFs on liposomes using ArfGEF constructs that contain a membrane-binding domain (DCB-HUS domain for BIG1, PH domains for the other GEFs). […] BRAG2 activates several Arf isoforms, including the plasma membrane-located Arf6 isoform. […] Bragsin1 and Bragsin2 have the same IC50 towards BRAG2 ([…]) according to dose-response analysis, confirming that Bragsin1 and Bragsin2 can be used interchangeably (FIG. 2d). The specific inhibition of BRAG2 by Bragsin in vitro predicts that BRAG2 silencing by siRNA should yield the same phenotype as treatment by the small molecule. Silencing of BRAG2 induced the redistribution of TGN46 into tubular or punctate structures, which phenocopied the effects induced by Bragsin (FIGS. 2e, 17 and 18). […] Silencing of ARNO, which is located at the plasma membrane, had no effect on TGN46 distribution. Overexpression of BRAG2-mCherry rescued the dispersion of the TGN46 structure induced by Bragsin, which is consistent with the silencing experiments (FIG. 2f). Bragsin is a specific inhibitor of the ArfGEF BRAG2 in vitro and in cells according to these experiments. These oexperiments identify a mechanism of inhibition that requires the membrane to manifests itself. […]
(§2) Nucleotide exchange kinetics were monitored by tryptophan fluorescence with excitation/emission wavelengths of 292/340 nm using a Cary Eclipse fluorimeter (Varian) at 37° C. and under continuous stirring as described in ^50,51. For specificity assays, 50 μM of Bragsin1 or 0.25% DMSO were incubated for 2 min at 37° C. in HKM buffer (50 mM HEPES pH 7.4, 120 mM potassium acetate, 1 mM MgCl2 and 1 mM DTT) with either 1 μM of N-terminally truncated Arf-GDP and 100 nM of indicated Sec7 domain (in solution) or 0.4 μM of ^myrArf1 in the presence of 100 μM of liposomes and 2 to 100 nM of ArfGEFs as described in (Benabdi, S. et al. Biochemistry 56, 5125-5133 (2017) and Peurois, F. et al. Biochem J 474, 1259-1272 (2017). Nucleotide exchange rates (kobs) were determined from monoexponential fits and means are given as the percentage of control activity±SD. […]

[2] = target: T2, Sec7 domain of EFA6a (Homo sapiens, UniProt A5PKW4)
T2 construct: human EFA6^Sec7 (527-727) and EFA6^Sec7PHCt (527-1024); made in house
T2 sequence (A5PKW4 527-727): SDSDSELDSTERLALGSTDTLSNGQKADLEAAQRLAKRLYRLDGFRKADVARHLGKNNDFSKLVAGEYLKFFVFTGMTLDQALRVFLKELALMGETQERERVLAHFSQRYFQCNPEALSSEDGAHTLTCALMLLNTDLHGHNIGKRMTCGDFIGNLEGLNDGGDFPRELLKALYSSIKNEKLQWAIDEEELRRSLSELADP
Description: as §1, §2

[3] = target: T3, Sec7 domain of BIG1 (Homo sapiens, UniProt Q9Y6D6)
T3 construct: BIG1^Sec7 (691-889), BIG1^DcbHusSec7 (2-888); made in house
T3 sequence (Q9Y6D6 691-889): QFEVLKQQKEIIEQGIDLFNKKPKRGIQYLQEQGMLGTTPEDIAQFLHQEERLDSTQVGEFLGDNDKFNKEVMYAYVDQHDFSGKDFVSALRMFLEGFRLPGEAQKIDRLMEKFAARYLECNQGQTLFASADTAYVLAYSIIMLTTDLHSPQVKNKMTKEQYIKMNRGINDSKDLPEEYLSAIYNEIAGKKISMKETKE
Description: as §1, §2

[4] = target: T4, Sec7 domain of BRAG2 (Homo sapiens, UniProt Q6DN90)
T4 construct: human BRAG2^Sec7 (390-594) and BRAG2^Sec7PH (390-811); made in house
T4 sequence (Q6DN90 512-716): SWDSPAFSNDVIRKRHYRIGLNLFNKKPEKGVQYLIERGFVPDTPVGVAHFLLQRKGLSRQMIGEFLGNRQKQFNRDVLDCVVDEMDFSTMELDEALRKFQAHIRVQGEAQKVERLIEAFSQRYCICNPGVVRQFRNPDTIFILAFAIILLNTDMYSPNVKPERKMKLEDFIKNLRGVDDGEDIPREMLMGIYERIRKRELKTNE
Description: as §1, §2

Measured: Effect on activation of Arf1 by Sec7 domain in solution

Cc1ccc2oc(C(F)(F)F)cc(=O)c2c1[N+](=O)[O-] [Bragsin1, 6-methyl-5-nitro-2-(trifluoromethyl)-4H-chromen-4-one]
no effect: all assays above
